Measurements from publication PMC8546421, “Molecular modelling of the FOXO4-TP53 interaction to design senolytic peptides for the elimination of senescent cancer cells” (EBioMedicine, 2021).
Entries after “also recorded” stand apart in the source; their conditions may differ. Read-outs that look alike come from different tables or passages of the source. Where no end group is shown, it is not given here.

Assays:
[1] = target: T1, FOXO4 (Homo sapiens, UniProt P98177); test: Bio-layer Interferometry, FOXO4; format: binding
T1 construct: purchased OriGene Technologies TP760655
Description: (§1) Bio-layer Interferometry (BLI) measurements were performed on a ForteBio Octet RED384 instrument (Molecular Devices) using ForteBio Data Acquisition software 9.0 and ForteBio biosensors (Molecular Devices) according to the manufacturer's instructions. Kinetic assays were carried out at 30°C using settings of Standard Kinetics Acquisition rate (5.0 Hz, averaging by 20) at a sample plate shake speed of 1,000 rpm. Streptavidin sensors (SA) (ForteBio) equilibrated in PBS were mock loaded (no ligand reference sensor) or loaded with 50 nM of N- terminal biotinylated ES2 peptide (New England Peptide, Inc.) with an approximate response of 1 nm. Ligand loaded SA sensors equilibrated in Kinetics buffer (ForteBio) to establish a baseline, were dipped into wells containing 2-fold dilutions of TP53 (Millipore Sigma Aldrich; Cat# 23-034), FOXO4 (OriGene Technologies; Cat# TP760655) or GFP analytes in kinetics buffer, or buffer alone (reference sample). Increasing concentrations of analytes ranging from 6.2 - 200 nM were allowed to associate for 240 secs, followed by 600 sec dissociation step where the TP53/FOXO4-bound sensors were washed with kinetics buffer. Binding curves were analysed using ForteBio Data Analysis HT 10.0 evaluation software. To control for background signal and non-specific binding, raw experimental data were processed by subtracting reference biosensor and reference sample (no ligand). Processed data from at least six different concentrations of analyte binding were globally fit to a 1:1 Langmuir binding model to calculate the association rate constant ka, the dissociation rate constant kd to achieve R^2 > 0.90. Equilibrium dissociation constants KD which defines the strength of the interaction or affinity was calculated as the kinetic dissociation rate constant divided by the kinetic association rate constant.

[2] = target: GFP (Aequorea victoria, UniProt P42212); test: Bio-layer Interferometry, GFP; format: binding; conditions: BLI
Description: as §1, with “Increasing concentrations of analytes ranging from 6.2 - 200 nM were allowed to associate for 240 secs, followed by 600 sec dissociation step where the TP53/FOXO4-bound sensors were washed with kinetics buffer.” left out, “To control for background signal and non-specific binding, raw experimental data were processed by subtracting reference biosensor and reference sample (no ligand). Processed data from at least six different concentrations of analyte binding were globally fit to a 1:1 Langmuir binding model to calculate the association rate constant ka, the dissociation rate constant kd to achieve R^2 > 0.90.” left out

[3] = test system: FOXO4-TP53 interaction; test: Co-immunoprecipitation of Myc-FOXO4 for p53; format: cell-based, human; conditions: senescent HCT116-Myc-FOXO4 cells, 8 µM ES2, 1 hour
Description: HCT116 cells were transduced with FOXO4 (NM_005938) human tagged ORF Lentiviral Particles (Origene, Cat# RC213185L1V) at 10^6 TU/mL. Cells were then cultured for seven passages. HCT116-Myc-FOXO4 were made senescent using 200 nM Doxorubicin at the final cell concentration of 24 million cells. Dividing cells were plated at concentration of 80 million cells. The following day, cells were treated with 8 µM ES2 for 0 or 1 hour. Nuclear protein was then isolated using NE-PER™ Nuclear and Cytoplasmic Extraction Reagents kit (Cat# 78833) then quantified via Pierce^TM BCA Protein Assay Kit (Cat# 23225) according to manufacturer's instructions. 400 µg of each nuclear lysate and 10 µL of provided positive control was used in the Thermo Scientific™ Pierce™ c-Myc-Tag IP/Co-IP Kit (Cat# 23620). The eluted protein (20 µL) was then loaded onto Bolt™ 4 to 12%, Bis-Tris, 1.0 mm, Mini Protein Gel, 10-well (Cat# NW04120BOX) and run at 120V for 60 minutes in 1X Invitrogen™ Bolt™ MOPS SDS Running Buffer using the Mini Gel Tank (Cat. A25977). Protein was then transferred onto 0.4 µm PVDF according to manufacturer protocol. The membrane was then blocked in 5% non-fat milk in 1x TBS-T (Cat# 03-500-537) for 60 minutes. […]

T1 sequence (P98177 whole entry): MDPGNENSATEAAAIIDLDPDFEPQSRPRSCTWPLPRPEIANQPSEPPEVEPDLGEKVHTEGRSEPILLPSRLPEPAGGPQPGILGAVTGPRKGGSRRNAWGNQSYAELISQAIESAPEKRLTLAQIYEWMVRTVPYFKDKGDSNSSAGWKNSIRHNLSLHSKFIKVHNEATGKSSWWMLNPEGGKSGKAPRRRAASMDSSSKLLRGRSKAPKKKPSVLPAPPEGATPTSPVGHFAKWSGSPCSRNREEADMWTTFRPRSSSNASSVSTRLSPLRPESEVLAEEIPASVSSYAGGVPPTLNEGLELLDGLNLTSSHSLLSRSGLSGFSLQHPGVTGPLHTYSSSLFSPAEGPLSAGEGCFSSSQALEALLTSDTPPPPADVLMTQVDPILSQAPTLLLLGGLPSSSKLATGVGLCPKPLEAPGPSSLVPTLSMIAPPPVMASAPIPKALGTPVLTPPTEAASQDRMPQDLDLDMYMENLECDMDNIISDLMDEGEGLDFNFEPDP

Sequence: PRKGGRRRRAWGRRRRRRRRRRRRRRAPRKRLTLA [ES2]
- affinity for FOXO4 compared to TP53 ([1]; BLI KD ratio): approximately 4 fold
- kon ([1]; BLI, 1:1 Langmuir binding model, read-out: association rate ka): 117000 M⁻¹ s⁻¹
- kd ([1]; BLI, biotinylated ES2 immobilized on streptavidin sensors, analyte 6.25-200 nM, 30°C, global 1:1 Langmuir fit): 7.7e-05 ± 7.2e-07 s⁻¹
- kon ([1]; BLI, biotinylated ES2 immobilized on streptavidin sensors, analyte 6.25-200 nM, 30°C, global 1:1 Langmuir fit, read-out: ka): 120000 M⁻¹ s⁻¹
- Kd ([1]; BLI, biotinylated ES2 immobilized on streptavidin sensors, analyte 6.25-200 nM, 30°C, kd/ka): 0.66 ± 0.01 nM
- Kd ([2]; biotinylated ES2 on streptavidin sensors, 30°C, NB – no binding): > 200 nM
- binding of GFP (in words) ([2]; six 2-fold dilutions of GFP starting at 200nM): minimal binding of GFP; also recorded: no binding was detected
- TP53 band co-immunoprecipitated with Myc-FOXO4 [3]: a band at 53kDa that is eliminated after treating with ES2
